Test results taken from US20230257374A1, “NOVEL KRAS G12C PROTEIN INHIBITOR, PREPARATION METHOD THEREFOR, AND USE THEREOF” (INNOVENT BIOLOGICS (SUZHOU) CO., LTD., priority 2019, published 2023).
pIC50: −log10 of the molar value.

Columns and labels:
[1] = in vitro; conditions: human, Caco-2, pH 7.4
Procedure: Drug penetration test: the Transwell culture plate was retrieved from the incubator. […] All samples were prepared in double parallel. The integrity of the cell monolayer membrane after 2 hours of incubation was assessed using leakage of fluorescein; fluorescein stock solution was diluted with HBSS (25 mM HEPES, pH 7.4) to a final concentration of 100 μM. 100 μL of fluorescein solution was added to each well of the upper Transwell plate and 300 μL of HBSS (25 mM HEPES, pH 7.4) was added to each well of the lower receiving plate; after incubation at 37° C. for 30 min, 80 μL of the solution was pipetted from the upper and lower layers of each well to a new 96-well plate.
The apparent permeability coefficients (Papp, unit: cm/s) of the compounds in Caco-2 cells were calculated from the specific concentrations at the acceptor and donor ends, and the specific calculation formula is as follows: […]
where VA represents the volume of the acceptor end solution (0.3 mL for Ap→Bl, 0.1 mL for Bl→Ap); Area represents the area of the Transwell-96 well plate (0.143 cm^2); time represents the incubation time (unit: s); [drug]acceptor represents the drug concentration (ratio of peak area to internal standard area) at the acceptor end; [drug]initial, donor represents the drug concentration at the donor end (ratio of peak area to internal standard area).
The efflux ratio was calculated as follows: […]
where Papp (B-A) represents the apparent permeability coefficient from base end to top end; Papp (A-B) represents the apparent permeability coefficient from top end to base end.

[2] = biological target: T1, KRAS G12C protein (Homo sapiens, UniProt P01116, G12C); assay: ERK protein phosphorylation assay (p-ERK) in H358 cells; format: cell-based; parameters: scale not given here; conditions: H358 cells expressing KRAS G12C protein, 3 h incubation with compound; read-out: IC50, inhibiting phosphorylation of KRAS G12C protein-mediated downstream signaling (p-ERK)
T1 construct: H358 cells (ATCC, CRL-5807) expressing KRAS G12C protein; host or cells: H358 (NCI-H358) cells
T1 sequence (P01116 1-188 isoform P01116-2 G12C): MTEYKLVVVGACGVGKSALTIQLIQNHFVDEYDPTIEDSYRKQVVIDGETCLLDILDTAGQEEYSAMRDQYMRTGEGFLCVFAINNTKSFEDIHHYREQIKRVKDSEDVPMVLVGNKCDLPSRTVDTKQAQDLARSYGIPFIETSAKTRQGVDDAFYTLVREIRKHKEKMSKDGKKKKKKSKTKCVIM
Outline: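 After paraformaldehyde fixation and methanol permeabilization, phospho-ERK detected by immunofluorescence read on an Odyssey CLx imager.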

[3] = system: H358 cell line (K-RAS G12C); assay: cells; format: cell-based, human; conditions: for pIC50: Homo sapiens, NCI-H358, 96 h, 3D culture, CellTiter-Glo 3D, read on day 4, read-out: H358 (K-RAS G12C) IC50; for Selectivity (fold number of mutant vs. wild type): PC-9 IC50 vs. H358 IC50
Procedure: a) On day 1, seed cells were placed in T75 a flask. b) On day 3, the medium was taken out and washed once with DPBS. c) Cells were trypsinized with 2 mL TrypLE™ Express enzyme at room temperature (RT) or 37° C. until cells detached. d) 5 mL of fresh medium was added to suspend the cells, and then the suspension was centrifuged at 1000 rpm and room temperature for 5 min. e) The supernatant was discarded, and the cells were resuspended in 5 mL of fresh medium and counted using Countess™ H. f) The cells were seeded back into the T75 flask for further culture or placed into an assay plate for 3D cell proliferation assay.
The cells were seeded at a density of 600 cells/well in a 384-well plate with 40 μL of medium per well and a final DMSO concentration of 0.5%. b) On day 4, a 3D CTG reagent was added to each well, followed by shaking at room temperature for 1 h. c) The signals were recorded using Envision.
a) Robustness was examined using 0.5% DMSO and data of blank control medium: H=mean (DMSO); L=mean (medium); SD (H)=STDEV (DMSO); SD (L)=STDEV (medium);
Y=peak valley value+(peak top value−peak valley value)/(1+10^((Log IC50−X)×HillSlope));
X: logarithm of compound concentration; Y: percent inhibition (% inhibition); Peak top and peak valley values: the plateau period units are the same as Y; log IC50: the same logarithmic unit as X; HillSlope: slope coefficient or Hill slope.

| Structure (SMILES) | Papp A→B at 2 h, 10 μM [1] [×10⁻⁶ cm/s] | Papp B→A at 2 h, 10 μM [1] [×10⁻⁶ cm/s] | efflux ratio at 2 h, 10 μM [1] | pIC50 [2] | pIC50 [3] | Selectivity (fold number of mutant vs. wild type) [3] [fold] |
| --- | --- | --- | --- | --- | --- | --- |
| [2H]C([2H])([2H])c1cccc2cccc(N3CCc4c(nc(OC[C@@H]5CCCN5C)nc4N4CCN(C(=O)C=C)[C@@H](CC#N)C4)C3)c12 [Compound 1, 2-((S)-1-acryloyl-4-(7-(8-(methyl-d3)naphthalen-1-yl)-2-(((S)-1-methylpyrrolidin-2-yl)methoxy)-5,6,7,8-tetrahydropyrido[3,4-d]pyrimidin-4-yl)piperazin-2-yl)acetonitrile] | 0.63 | 5.5 | 8.7 | > 6.00 | 9.26 | 8745 |
| [2H]C([2H])([2H])N1CCC[C@H]1COc1nc2c(c(N3CCN(C(=O)C=C)[C@@H](CC#N)C3)n1)CCN(c1cccc3cccc(C)c13)C2 [Compound 42, 2-((S)-1-acryloyl-4-(7-(8-methylnaphthalen-1-yl)-2-(((S)-1-(methyl-d3)pyrrolidin-2-yl)methoxy)-5,6,7,8-tetrahydropyrido[3,4-d]pyrimidin-4-yl)piperazin-2-yl)acetonitrile] |  |  |  | > 6.00 | 9.21 | 3823 |
